Assay results published in patent US5446043A, “Isoquinolyl, quinoxalinyl and quinazolinyl derivatives as inhibitors of 5-lipoxygenase” (Imperial Chemical Industries Plc, priority 1989, dated 1995).

Experiments:
[1] = target: T1, 5-LO (Homo sapiens, UniProt P09917); assay: Test b) heparinised human blood challenged with A23187, LTB4 radioimmunoassay (5-LO); format: cell-based; conditions: read-out: IC50 against LTB4
T1 construct: incubating a test compound with heparinised human blood, prior to challenge with the calcium ionophore A23187; endogenous in cells; host or cells: blood cells in heparinised human whole blood
T1 sequence (P09917 1-674): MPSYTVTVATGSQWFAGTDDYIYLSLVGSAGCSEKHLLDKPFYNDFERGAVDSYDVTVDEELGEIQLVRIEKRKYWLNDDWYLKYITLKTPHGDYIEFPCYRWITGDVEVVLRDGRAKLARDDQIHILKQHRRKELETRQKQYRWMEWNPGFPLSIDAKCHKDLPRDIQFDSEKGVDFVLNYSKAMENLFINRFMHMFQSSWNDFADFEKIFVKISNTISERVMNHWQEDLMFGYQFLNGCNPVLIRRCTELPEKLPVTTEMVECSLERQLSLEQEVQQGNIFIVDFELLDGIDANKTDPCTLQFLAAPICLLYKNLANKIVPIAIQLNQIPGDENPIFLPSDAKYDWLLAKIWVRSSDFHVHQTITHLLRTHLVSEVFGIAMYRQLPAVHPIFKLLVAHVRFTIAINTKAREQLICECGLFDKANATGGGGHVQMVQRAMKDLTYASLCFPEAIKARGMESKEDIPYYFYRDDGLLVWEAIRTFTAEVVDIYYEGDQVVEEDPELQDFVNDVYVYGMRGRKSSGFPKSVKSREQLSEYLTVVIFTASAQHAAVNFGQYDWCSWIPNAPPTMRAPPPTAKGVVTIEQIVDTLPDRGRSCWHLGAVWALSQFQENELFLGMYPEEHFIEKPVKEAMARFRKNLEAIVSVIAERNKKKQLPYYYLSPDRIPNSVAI
Description: (§1) b) An in vitro assay system involving incubating a test compound with heparinised human blood, prior to challenge with the calcium ionophore A23187 and then indirectly measuring the inhibitory effects on 5-LO by assaying the amount of LTB4 using the specific radioimmunoassay described by Carey and Forder (F. Carey and R. A. Forder, Brit. J. Pharmacol. 1985, 84, 34P) which involves the use of a protein-LTB4 conjugate produced using the procedure of Young et alia (Prostaglandins, 1983, 26(4), 605-613). The effects of a test compound on the enzyme cyclooxygenase (which is involved in the alternative metabolic pathway for arachidonic acid .and gives rise to prostaglandins, thromboxanes and related metabolites) may be measured at the same time using the specific radioimmunoassay for thromboxane B2 (T×B2) described by Carey and Forder (see above). This test provides an indication of the effects of a test compound against 5-LO and also cyclooxgenase in the presence of blood cells and proteins. It permits the selectivity of the inhibitory effect on 5-LO or cyclooxygenase to be assessed.

[2] = tested on: 5-LO; assay: Test c) ex vivo assay: administration of compound, blood collection, A23187 challenge, LTB4 radioimmunoassay; format: in vivo
Description: c) An ex vivo assay system, which is a variation of test b) above, involving administration of a test compound (usually orally as the suspension produced when a solution of the test compound in dimethylsulphoxide is added to carboxymethylcellulose), blood collection, heparinisation, challenge with A23187 and radioimmunoassay of LTB4 and T×B2. This test provides an indication of the bioavailability of a test compound as an inhibitor of 5-LO or cyclooxygenase.

[3] = target: T2, cyclooxygenase (Homo sapiens, UniProt P23219); assay: Test b) heparinised human blood challenged with A23187, TxB2 radioimmunoassay (cyclooxygenase); format: cell-based; conditions: A23187, T×B2
T2 construct: incubating a test compound with heparinised human blood, prior to challenge with the calcium ionophore A23187; endogenous in cells; host or cells: blood cells (chiefly platelets, own knowledge) in heparinised human whole blood
T2 sequence (P23219 24-599): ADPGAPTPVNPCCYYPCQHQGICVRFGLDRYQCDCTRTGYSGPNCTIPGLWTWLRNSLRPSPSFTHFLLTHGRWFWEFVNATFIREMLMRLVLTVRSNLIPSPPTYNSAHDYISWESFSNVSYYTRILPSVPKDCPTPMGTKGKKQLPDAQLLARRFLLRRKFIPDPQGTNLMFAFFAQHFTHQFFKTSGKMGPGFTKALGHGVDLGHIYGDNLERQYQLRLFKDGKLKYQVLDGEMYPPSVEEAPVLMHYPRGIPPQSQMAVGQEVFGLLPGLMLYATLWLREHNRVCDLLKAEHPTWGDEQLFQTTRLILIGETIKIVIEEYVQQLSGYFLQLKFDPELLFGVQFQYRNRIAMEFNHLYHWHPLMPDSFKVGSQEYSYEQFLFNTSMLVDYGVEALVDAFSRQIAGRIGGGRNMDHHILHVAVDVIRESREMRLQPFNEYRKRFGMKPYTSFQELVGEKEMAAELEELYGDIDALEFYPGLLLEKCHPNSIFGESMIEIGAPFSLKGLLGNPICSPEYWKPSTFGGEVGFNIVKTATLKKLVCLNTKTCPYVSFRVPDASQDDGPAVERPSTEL
Description: as §1

IC50 [1]: 8 µM
IC50 [3]: > 40 µM
SMILES: CO[C@H]1CCC[C@@]1(OC)c1cccc(OCC#Cc2ccccn2)c1 (relative stereo) [trans-1,2-dimethoxy-1-[3-(3-(2-pyridyl)prop-2-yn-1-yloxy)phenyl]-cyclopentane]
oral ED50 against LTB4 [2]: < 100 mg/k
